The target in this assay is T1, Glucocorticoid Receptor (GR) (Homo sapiens, UniProt P04150).
T1 construct: purchased Invitrogen P2893
T1 sequence (P04150 1-777): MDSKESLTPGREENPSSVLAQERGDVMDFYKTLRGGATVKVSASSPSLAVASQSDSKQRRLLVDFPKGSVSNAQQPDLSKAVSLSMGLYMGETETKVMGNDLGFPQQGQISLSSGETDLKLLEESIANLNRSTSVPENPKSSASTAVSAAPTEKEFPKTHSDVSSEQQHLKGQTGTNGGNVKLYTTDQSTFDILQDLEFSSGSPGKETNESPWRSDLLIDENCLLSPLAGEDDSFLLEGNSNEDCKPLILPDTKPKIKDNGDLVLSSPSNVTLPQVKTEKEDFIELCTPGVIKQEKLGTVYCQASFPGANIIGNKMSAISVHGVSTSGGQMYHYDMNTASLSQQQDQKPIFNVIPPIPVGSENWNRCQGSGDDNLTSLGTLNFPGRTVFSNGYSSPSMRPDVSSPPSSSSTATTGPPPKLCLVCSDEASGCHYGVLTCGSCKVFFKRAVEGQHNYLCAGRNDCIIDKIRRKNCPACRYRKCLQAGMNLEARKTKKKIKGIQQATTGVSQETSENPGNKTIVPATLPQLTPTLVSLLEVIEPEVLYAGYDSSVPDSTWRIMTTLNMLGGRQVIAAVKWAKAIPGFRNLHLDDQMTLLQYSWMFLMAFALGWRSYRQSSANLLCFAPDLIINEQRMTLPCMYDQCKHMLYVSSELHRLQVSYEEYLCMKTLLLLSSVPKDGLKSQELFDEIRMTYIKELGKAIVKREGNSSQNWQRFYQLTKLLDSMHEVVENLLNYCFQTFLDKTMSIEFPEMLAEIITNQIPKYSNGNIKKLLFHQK
Briefly: GR Fluorescence Polarization Assay (PolarScreen Glucocorticoid Receptor Competitor Assay, Red). Particulars: IC50 class ranges, read-out: GR binding. The protocol:
GR Fluorescence Polarization Assay
Fluorescence polarization assays were carried out using the PolarScreen™ Glucocorticoid Receptor Competitor Assay, Red from Invitrogen (P2893). The assay buffer was prepared according to the manufacturer's protocol and used to dilute the fluorescent glucocorticoid and GR. Compounds were prepared and serial diluted 1:4 in DMSO. Compound, fluorescent glucocorticoid and GR were added in a final volume of 20 μL and incubated overnight at 4° C. Fluorescent polarization was measured on the PerkinElmer Envision®.

pIC50: −log10 of the molar value.

As to `CCn1nc(-c2ccccn2)c2c1N[C@H](C)CS[C@@H]2c1ccc(C(N)=O)cc1C` (single isomer, unassigned) [M.47, 4-(1-ethyl-7-methyl-3-(pyridin-2-yl)-4,6,7,8-tetrahydro-1H-pyrazolo[3,4-e][1,4]thiazepin-4-yl)-3-methylbenzamide], the pIC50 was 6.00 to 7.00. The value for `Cn1nc(-c2ccc(Cl)c(Cl)c2)c2c1NCCSC2c1ccc(Cl)cc1Cl` (stereo not shown) [D.89] was 6.00 to 7.00; that for `Cc1cccc(-c2nn(C)c3c2C(c2ccc(Cl)cc2C)SCCN3)n1` (stereo not shown) was 5.00 to 6.00; that for `Cc1ncccc1NC(=O)N1CCC(C2SCCNc3c2c(-c2ccccn2)nn3C)CC1` (stereo not shown) was under 5.00. The result for `Cn1nc(-c2ccccn2)c2c1NCCSC2c1ccc(-c2cncc(C#N)c2)cc1Cl` (stereo not shown) [U.4] reads 6.00 to 7.00; that for `CCn1nc(-c2ccccn2)c2c1N[C@@H](C)CS[C@@H]2c1ccc(CCCO)cc1C` (single isomer, unassigned) [M.33, 3-(4-(1-ethyl-7-methyl-3-(pyridin-2-yl)-4,6,7,8-tetrahydro-1H-pyrazolo[3,4-e][1,4]thiazepin-4-yl)-3-methylphenyl)propan-1-ol], 6.00 to 7.00.

On to `COc1ccc(C2SCCNc3c2c(C)nn3C)cc1` (stereo not shown) [D.97], for which the pIC50 was 5.00 to 6.00. The value for `Cc1cc(C#N)ccc1C1SCCNc2c1c(-c1ccccn1)nn2C` (single isomer, unassigned) [M.21, 3-methyl-4-(1-methyl-3-(pyridin-2-yl)-4,6,7,8-tetrahydro-1H-pyrazolo[3,4-e][1,4]thiazepin-4-yl)benzonitrile] was over 7.00.

In the case of `Cn1nc(C(F)(F)F)c2c1NCCSC2c1ccc(Cl)cc1Cl` (stereo not shown) [D.91], the pIC50 was 5.00 to 6.00. The result for `Cc1cc(CCCO)ccc1[C@H]1SC[C@H](C)Nc2c1c(-c1ccccn1)nn2C` (single isomer, unassigned) [M.49, 3-(4-(1,7-dimethyl-3-(pyridin-2-yl)-4,6,7,8-tetrahydro-1H-pyrazolo[3,4-e][1,4]thiazepin-4-yl)-3-methylphenyl)propan-1-ol] reads 5.00 to 6.00. `CCn1nc(-c2ccccn2)c2c1NC(=O)CCC2c1ccc(Br)cc1C` (stereo not shown) [AA.3]: the pIC50 is over 7.00. The value for `Cn1nc(-c2ccccn2)c2c1NCCSC2c1ccc(-c2ccnnc2)cc1Cl` (stereo not shown) [U.3] was 5.00 to 6.00; that for `Cc1cc(C(=O)Nc2cccnc2C)ccc1[C@H]1SC[C@H](C)Nc2c1c(-c1ccncn1)nn2C` (single isomer, unassigned) [M.59, 4-(1,7-dimethyl-3-(pyrimidin-4-yl)-4,6,7,8-tetrahydro-1H-pyrazolo[3,4-e][1,4]thiazepin-4-yl)-3-methyl-N-(2-methylpyridin-3-yl)benzamide] was 5.00 to 6.00. The result for `CCn1nc(-c2ccccn2)c2c1N[C@H](C)CS[C@@H]2c1ccc(C#CCO)cc1C` (single isomer, unassigned) [M.26, 3-(4-(1-ethyl-7-methyl-3-(pyridin-2-yl)-4,6,7,8-tetrahydro-1H-pyrazolo[3,4-e][1,4]thiazepin-4-yl)-3-methylphenyl)prop-2-yn-1-ol] reads 5.00 to 6.00; that for `Cc1ccc(Oc2ccc(C3SCCNc4c3c(C)nn4C)cc2)cc1` (stereo not shown) [D.75], 5.00 to 6.00; that for `Cc1ncccc1NC(=O)c1ccc(C2SCCNc3c2c(-c2ccccn2)nn3C)c(Cl)c1` (stereo not shown), over 7.00. The result for `Cc1cc(C#N)ccc1C1SC(C)CNc2c1c(C)nn2C` (stereo not shown) [G.11] reads 5.00 to 6.00; that for `Cc1cc(C(=O)Nc2cccnc2C)ccc1C1SCC(CO)Nc2c1c(-c1ccccn1)nn2C` (single isomer, unassigned), 5.00 to 6.00; that for `Cn1nc(-c2ccccn2)c2c1NCCSC2c1ccc(-c2cncnc2)cc1Cl` (stereo not shown) [U.2], 5.00 to 6.00. As for `CCn1nc(-c2ccccn2)c2c1N[C@@H](C)CS[C@@H]2c1ccc(C#CCO)cc1C` (single isomer, unassigned) [M.25, 3-(4-(1-ethyl-7-methyl-3-(pyridin-2-yl)-4,6,7,8-tetrahydro-1H-pyrazolo[3,4-e][1,4]thiazepin-4-yl)-3-methylphenyl)prop-2-yn-1-ol], the pIC50 was 5.00 to 6.00. The value for `CCn1nc(-c2ccccn2)c2c1NCCSC2c1ccc(C(=O)Nc2onc(C)c2C#N)cc1C` (stereo not shown) [S.7] was 6.00 to 7.00. The result for `CCn1nc(-c2ccccn2)c2c1NCCSC2c1ccc(C(=O)Nc2nnn[nH]2)cc1C` (stereo not shown) [S.6] reads 6.00 to 7.00; that for `CCn1nc(-c2ccccn2)c2c1N[C@H](C)CS[C@@H]2c1ccc(CCC(C)(C)O)cc1C` (single isomer, unassigned) [M.38, 4-(4-(1-ethyl-7-methyl-3-(pyridin-2-yl)-4,6,7,8-tetrahydro-1H-pyrazolo[3,4-e][1,4]thiazepin-4-yl)-3-methylphenyl)-2-methylbutan-2-ol], 6.00 to 7.00.

For the compound `Cc1cc(Cl)ccc1C1SCC(C)Nc2c1c(-c1ccccn1)nn2C` (single isomer, unassigned), the pIC50 was over 7.00.

With `Cc1nn(C)c2c1C(c1ccc(Cl)cc1)SC(CCO)CN2` (stereo not shown) [D.100], the pIC50 is over 7.00. As to `Cn1nc(-c2ccccn2)c2c1NCCSC2c1ccc(-c2ccncc2C#N)cc1Cl` (stereo not shown) [U.9], the pIC50 is 6.00 to 7.00.

For the compound `CCn1nc(-c2ccccn2)c2c1NCCSC2c1ccc(C(=O)Nc2cccnc2C)cc1C` (single isomer, unassigned) [M.61, 4-(1-ethyl-3-(pyridin-2-yl)-4,6,7,8-tetrahydro-1H-pyrazolo[3,4-e][1,4]thiazepin-4-yl)-3-methyl-N-(2-methylpyridin-3-yl)benzamide], the pIC50 is 6.00 to 7.00.

For the compound `CCn1nc(-c2ccccn2)c2c1N[C@@H](C)CS[C@@H]2c1ccc(CCC(C)(C)O)cc1C` (single isomer, unassigned) [M.37, 4-(4-(1-ethyl-7-methyl-3-(pyridin-2-yl)-4,6,7,8-tetrahydro-1H-pyrazolo[3,4-e][1,4]thiazepin-4-yl)-3-methylphenyl)-2-methylbutan-2-ol], the pIC50 was 6.00 to 7.00.

In the case of `Cc1nn(C)c2c1C(c1cc[nH]n1)SCCN2` (stereo not shown) [D.102], the pIC50 was under 5.00.

For the compound `CCn1nc(-c2ccccn2)c2c1N[C@H](C)CS[C@@H]2c1ccc(C#CC(C)(C)O)cc1C` (single isomer, unassigned) [M.30, 4-(4-(1-ethyl-7-methyl-3-(pyridin-2-yl)-4,6,7,8-tetrahydro-1H-pyrazolo[3,4-e][1,4]thiazepin-4-yl)-3-methylphenyl)-2-methylbut-3-yn-2-ol], the pIC50 is 5.00 to 6.00. The value for `Cc1cc(C(=O)Nc2cccnc2C)ccc1C1CCC(=O)Nc2c1c(C)nn2C` (stereo not shown) [O.1, 4-(1,3-Dimethyl-7-oxo-1,4,5,6,7,8-hexahydropyrazolo[3,4-b]azepin-4-yl)-3-methyl-N-(2-methylpyridin-3-yl)benzamide] was 5.00 to 6.00; that for `Cn1nc(-c2ccccn2)c2c1NCCSC2c1ccc(-c2cnc3nccnc3c2)cc1Cl` (stereo not shown) [U.11] was 5.00 to 6.00; that for `Cn1nc(-c2ccccn2)c2c1NCCSC2c1ccc(-c2cncc(C(N)=O)c2)cc1Cl` (stereo not shown) [U.7] was 5.00 to 6.00. The result for `Cc1ccc(C(=O)Nc2cccnc2C)cc1C1SC(C)(C)CNc2c1c(C1CC1)nn2C` (stereo not shown) [H.2] reads under 5.00. The value for `Cc1nn(C)c2c1C(c1ccccn1)SCCN2` (stereo not shown) [D.96] was under 5.00; that for `Cc1ncccc1NC(=O)c1ccc([C@H]2SC[C@H](C)Nc3c2c(-c2ccccn2)nn3C)c(C#N)c1` (single isomer, unassigned) [M.18, 3-cyano-4-(1,7-dimethyl-3-(pyridin-2-yl)-4,6,7,8-tetrahydro-1H-pyrazolo[3,4-e][1,4]thiazepin-4-yl)-N-(2-methylpyridin-3-yl)benzamide] was 5.00 to 6.00. Take `Cn1nc(-c2ccccn2)c2c1N(CC(=O)O)CCSC2c1ccc(Cl)cc1Cl` (stereo not shown): the pIC50 was 5.00 to 6.00. The value for `CNC(=O)c1ccc(C2SCCNc3c2c(-c2ccccn2)nn3C)c(Cl)c1` (stereo not shown) [I.2] was 6.00 to 7.00; that for `Cn1nc(-c2ccccn2)c2c1NCCSC2c1ccc(-c2cnn(CC(N)=O)c2)cc1Cl` (stereo not shown) [U.17] was 6.00 to 7.00; that for `Cn1nc(-c2ccccn2)c2c1N(CC(N)=O)CCSC2c1ccc(Cl)cc1Cl` (stereo not shown) was 5.00 to 6.00. Take `CCn1nc(-c2ccccn2)c2c1N[C@@H](C)CS[C@@H]2c1ccc(C#CCN(C)C)cc1C` (single isomer, unassigned) [M.64, 3-(4-(1-ethyl-7-methyl-3-(pyridin-2-yl)-4,6,7,8-tetrahydro-1H-pyrazolo[3,4-e][1,4]thiazepin-4-yl)-3-methylphenyl)-N,N-dimethylprop-2-yn-1-amine]: the pIC50 is 5.00 to 6.00.

As to `Cn1nc(-c2ccccn2)c2c1NCCSC2c1ccc(-c2cnc(N3CCOCC3)nc2)cc1Cl` (stereo not shown) [U.19], the pIC50 is 5.00 to 6.00. Consider `Cc1cc(C#CCCO)ccc1[C@H]1SC[C@H](C)Nc2c1c(-c1ccccn1)nn2C` (single isomer, unassigned) [M.53, 4-(4-(1,7-dimethyl-3-(pyridin-2-yl)-4,6,7,8-tetrahydro-1H-pyrazolo[3,4-e][1,4]thiazepin-4-yl)-3-methylphenyl)but-3-yn-1-ol], for which the pIC50 is 6.00 to 7.00.

Values taken from US9150592B2, “Heterocyclic nuclear hormone receptor modulators” (AbbVie Inc., priority 2012, dated 2015).
